Measurements as given in US20240316038A1, “APOL1 INHIBITORS AND METHODS OF USE” (Maze Therapeutics, Inc., priority 2021, published 2024).
pEC50: −log10 of the molar value.

Assays:
APOL1 G2 [1] = target: T1, APOL1 G2 (Homo sapiens, UniProt O14791, DEL388-389); assay: APOL1 calcium transport inhibition assay (GCaMP6f calcium influx, FLIPR) in HEK T-REx/GCaMP6f/APOL1 G2 K6.3 cells; type: cell-based; settings: inhibition of APOL1-mediated calcium influx; geometric mean of at least 2 assay runs, † = single assay run (technical duplicate)
T1 construct: expressed in transfected cells; host or cells: HEK293 T-REx clonal lines: HEK T-REx/GCaMP6f/APOL1 G2 K6.3 in A1, HEK293/T-REx APOL1 G2/clone #2 in A2
T1 sequence (O14791 with tags, fused parts or gaps DEL388-389): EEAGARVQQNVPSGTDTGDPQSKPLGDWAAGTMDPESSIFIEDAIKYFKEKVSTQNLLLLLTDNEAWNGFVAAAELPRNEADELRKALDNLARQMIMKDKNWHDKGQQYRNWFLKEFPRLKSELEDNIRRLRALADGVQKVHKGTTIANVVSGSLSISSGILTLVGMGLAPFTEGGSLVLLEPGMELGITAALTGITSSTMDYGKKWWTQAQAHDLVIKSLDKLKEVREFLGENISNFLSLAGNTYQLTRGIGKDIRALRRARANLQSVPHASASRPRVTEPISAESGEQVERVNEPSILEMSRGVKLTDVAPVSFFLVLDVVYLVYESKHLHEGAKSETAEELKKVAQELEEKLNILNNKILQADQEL
Summary of the method: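 HEK293 cells stably expressing GCaMP6f, APOL1 G2 induced 6 h with doxycycline (20 ng/mL added), then washed into Ca2+-free Tyrode's buffer pH 7.4. Compounds (8-point dose response) preincubated 10 min at room temperature, then Ca2+ injected to 5 mM final and influx read on FLIPR. AC50 reported as geometric mean of runs.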

APOL1 G2 [2] = target: T1, APOL1 G2; assay: Rescue of HEK293 cell death caused by overexpression of APOL1 (CellTiter-Glo luminescence), HEK293/T-REx APOL1 G2/clone #2; type: cell-based; settings: reversal of cell death caused by overexpression of APOL1; geometric mean of at least 2 assay runs, † = single assay run (technical duplicate)
Summary of the method: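 Rescue EC50s come from four-parameter logistic fits, geometric mean of at least 2 runs on separate days, each in duplicate. Readout: CellTiter-Glo luminescence after 17 h at 37 °C of 5,000 HEK293/T-REx APOL1 G2 clone #2 cells/well, with 6 ng/mL doxycycline to induce APOL1 and 3-fold serial compound dilutions in 0.5% DMSO.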

| Structure (SMILES) | AC50 (APOL1 G2 [1]) [nM] | pEC50 (APOL1 G2 [2]) |
| --- | --- | --- |
| CC1CC(COc2ccc(S(C)(=O)=O)cc2)CN1CCc1cc(Cl)cc(C#N)c1 (single isomer, unassigned) [Compound 201, 3-chloro-5-(2-((2R,4S or 2S,4R or 2R,4R or 2S,4S)-2-methyl-4-((4-(methylsulfonyl)phenoxy)methyl)pyrrolidin-1-yl)ethyl)benzonitrile] | 620 | 5.77 |
| CC1CC(COc2ccc(S(C)(=O)=O)cc2)CN1CCc1cc(Cl)cc(C#N)c1 (single isomer, unassigned) [Compound 202, rac-trans or cis-3-chloro-5-{2-[4-[(4-methanesulfonylphenoxy)methyl]-2-methylpyrrolidin-1-yl]ethyl}benzonitrile] | 860 | 7.05 |
| CC1CC(COc2ccc(S(C)(=O)=O)cc2)CN1CCc1cc(Cl)cc(C#N)c1 (single isomer, unassigned) [Compound 203, 3-chloro-5-(2-((2R,4S or 2S,4R or 2R,4R or 2S,4S)-2-methyl-4-((4-(methylsulfonyl)phenoxy)methyl)pyrrolidin-1-yl)ethyl)benzonitrile] | 9300 | 5.45 |
| CC1CC(COc2ccc(S(C)(=O)=O)cc2)CN1CCc1cc(Cl)cc(C#N)c1 (single isomer, unassigned) [Compound 204, 3-chloro-5-(2-((2R,4S or 2S,4R or 2S,4S or 2R.4R)-2-methyl-4-((4-(methylsulfonyl)phenoxy)methyl)pyrrolidin-1-yl)ethyl)benzonitrile] | 456 | 7.37 |
| C[C@]1(O)CN(CCc2cccc(Cl)c2)C[C@@H]1COc1ccc(S(C)(=O)=O)cc1 (single isomer, unassigned) [Compound 206, (3R,4R or 3S,4S)-1-[2-(3-chlorophenyl)ethyl]-4-[(4-methanesulfonylphenoxy)methyl]-3-methylpyrrolidin-3-ol] | > 25000 | < 4.52 |
| C[C@@]1(O)CN(CCc2cccc(Cl)c2)C[C@H]1COc1ccc(S(C)(=O)=O)cc1 (single isomer, unassigned) [Compound 207, (3S,4S or 3R,4R)-1-[2-(3-chlorophenyl)ethyl]-4-[(4-methanesulfonylphenoxy)methyl]-3-methylpyrrolidin-3-ol] | 340 | 6.03 |
| C[C@@]1(O)CN(CCc2cccc(Cl)c2)C[C@@H]1COc1ccc(S(C)(=O)=O)cc1 (single isomer, unassigned) [Compound 209, (3R,4S or 3S,4R)-1-[2-(3-chlorophenyl)ethyl]-4-[(4-methanesulfonylphenoxy)methyl]-3-methylpyrrolidin-3-ol pyrrolidine-3-ol] | 3740 | < 4.71 |
| C[C@]1(O)CN(CCc2cccc(Cl)c2)C[C@H]1COc1ccc(S(C)(=O)=O)cc1 (single isomer, unassigned) [Compound 210, (3S,4R or 3R,4S)-1-[2-(3-chlorophenyl)ethyl]-4-[(4-methanesulfonylphenoxy)methyl]-3-methylpyrrolidin-3-ol] | 898 | 5.51 |
| CC1CNC(COc2ccc(S(C)(=O)=O)cc2)CN1CCc1cccc(Cl)c1 (single isomer, unassigned) [Compound 212, rac-cis or trans-(2R,5S)-1-[2-(3-chlorophenyl)ethyl]-5-[(4-methanesulfonylphenoxy)methyl]-2-methylpiperazine] | 2550 | < 4.84 |
| CC1CNC(COc2ccc(S(C)(=O)=O)cc2)CN1CCc1cccc(Cl)c1 (single isomer, unassigned) [Compound 213, rac-trans or cis-(2R,5S)-1-[2-(3-chlorophenyl)ethyl]-5-[(4-methanesulfonylphenoxy)methyl]-2-methylpiperazine] | 877 | 6.02 |
| C[C@@H]1C[C@H](COc2ccc(S(C)(=O)=O)cc2)CN1CC(O)c1cccc(Cl)c1 (single isomer, unassigned) [Compound 214, (1R) or (1S)-1-(3-chlorophenyl)-2-[(2R,4S)-4-[(4-methanesulfonylphenoxy)methyl]-2-methylpyrrolidin-1-yl]ethan-1-ol] | 428 | 6.17 |
| C[C@@H]1C[C@H](COc2ccc(S(C)(=O)=O)cc2)CN1CC(O)c1cccc(Cl)c1 (single isomer, unassigned) [Compound 215, (1S) or (1R)-1-(3-chlorophenyl)-2-[(2R,4S)-4-[(4-methanesulfonylphenoxy)methyl]-2-methylpyrrolidin-1-yl]ethan-1-ol] | 229 | 7.37 |
| CS(=O)(=O)c1ccc(OCC2CCCCN(CCc3cccc(Cl)c3)C2)cc1 (centres unmarked) [Compound 1, 1-(3-chlorophenethyl)-3-((4-(methylsulfonyl)phenoxy)methyl)azepane] | ≤ 253 | 6.28 |
| CS(=O)(=O)c1ccc(OCC2(O)CCCN(CCc3cccc(Cl)c3)C2)cc1 (centres unmarked) [Compound 4, 1-(3-chlorophenethyl)-3-((4-(methylsulfonyl)phenoxy)methyl) piperidin-3-ol] | 1070 | 5.63 |
| CN(c1ccc(OCC2CCCN(CCc3cccc(Cl)c3)C2)cc1)S(C)(=O)=O (centres unmarked) [Compound 7, N-(4-((1-(3-chlorophenethyl)piperidin-3-yl)methoxy)phenyl)-N-methylmethanesulfonamide] | < 253 | 6.49 |
| CN(c1ccc(OCC2CN(CCc3cccc(Cl)c3)CCCO2)cc1)S(C)(=O)=O (centres unmarked) [Compound 10, N-(4-((4-(3-chlorophenethyl)-1,4-oxazepan-2-yl)methoxy)phenyl)-N-methylmethane-sulfonamide] | 1720 | 5.61 |
| CS(=O)(=O)c1ccc(OC[C@@H]2CN(CCc3cccc(Cl)c3)CCN2)cc1 [Compound 13, (S)-1-(3-chlorophenethyl)-3-((4-(methylsulfonyl)phenoxy)methyl)piperazine] | 143 | 6.35 |
| CS(=O)(=O)c1ccc(OC[C@H]2CN(CCc3cccc(Cl)c3)CCN2)cc1 [Compound 14, (R)-1-(3-chlorophenethyl)-3-((4-(methylsulfonyl)phenoxy)methyl)piperazine] | 3340 | < 4.52 |
| CS(=O)(=O)c1ccc(OC[C@@H]2CCCN(CCc3cccc(Cl)c3)C2)cc1 [Compound 15, (R)-1-(3-chlorophenethyl)-3-((4-(methylsulfonyl)phenoxy)methyl)piperidine] | 287 | 6.25 |
| CS(=O)(=O)c1ccc(OC[C@H]2CCCN(CCc3cccc(Cl)c3)C2)cc1 [Compound 16, (S)-1-(3-chlorophenethyl)-3-((4-(methylsulfonyl)phenoxy)methyl)piperidine] | 231 | 6.48 |
| CS(=O)(=O)c1ccc(OC[C@H]2CCCN(CC(O)c3cccc(Cl)c3)C2)cc1 (stereo partly drawn) [Compound 17, 1-(3-chlorophenyl)-2-((S)-3-((4-(methylsulfonyl)phenoxy)methyl)piperidin-1-yl)ethan-1-ol] | 1370 | 6.17 |
| CS(=O)(=O)c1ccc(OC[C@@H]2CCCN(CC(O)c3cccc(Cl)c3)C2)cc1 (stereo partly drawn) [Compound 20, 1-(3-chlorophenyl)-2-((R)-3-((4-(methylsulfonyl)phenoxy)methyl)piperidin-1-yl)ethanol] | 1760 | 5.87 |
| CS(=O)(=O)c1ccc(CCC2CCCN(CCc3cccc(Cl)c3)C2)cc1 (centres unmarked) [Compound 39, 1-(3-chlorophenethyl)-3-(4-(methylsulfonyl)phenethyl)piperidine] | 249 | 6.04 |
| CC1(C)CC(COc2ccc(S(C)(=O)=O)cc2)CN1CCc1cccc(Cl)c1 (centres unmarked) [Compound 42, 1-(3-chlorophenethyl)-2,2-dimethyl-4-((4-(methylsulfonyl)phenoxy)methyl) pyrrolidine] | 477 | 7.23 |
| CN(c1ccc(O[C@H]2C[C@H](NCCc3cccc(Cl)c3)C2)cc1)S(C)(=O)=O [Compound 48, trans-N-(4-(3-((3-chlorophenethyl)amino)cyclobutoxy)phenyl)-N-methylmethanesulfonamide] | 1920 | 5.60 |
| CN(c1ccc(OC[C@H]2CCN(CCc3cccc(Cl)c3)C2)cc1)S(C)(=O)=O [Compound 49, (S)-N-(4-((1-(3-chlorophenethyl)pyrrolidin-3-yl)methoxy)phenyl)-N-methylmethanesulfonamide] | 847 | 6.02 |
| CN(c1ccc(OC[C@@H]2CCN(CCc3cccc(Cl)c3)C2)cc1)S(C)(=O)=O [Compound 50, (R)-N-(4-((1-(3-chlorophenethyl)pyrrolidin-3-yl)methoxy)phenyl)-N-methylmethanesulfonamide] | 1320 | 5.69 |
| CS(=O)(=O)c1ccc(OC[C@H]2CCN(CCc3cccc(Cl)c3)C2)cc1 [Compound 51, (S)-1-(3-chlorophenethyl)-3-((4-(methylsulfonyl)phenoxy)methyl)pyrrolidine] | 727 | 5.83 |
